In PubChem BioAssay (NCI):
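In this assay, cells in 96-well plates receive the compound at five concentrations for 48 hours. Endpoints are linearly interpolated between the surrounding concentrations. GI50 marks 50% less growth. Definition used: TGI = concentration required for complete inhibition of growth.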

Assays:
Assay in all cases: NCI-60 cell line screen, 48 h
786-0 renal = test system: 786-0 renal
A498 renal = test system: A498 renal
A549 NSCLC = test system: A549 NSCLC
ACHN renal = test system: ACHN renal
BT-549 breast = test system: BT-549 breast
CAKI-1 renal = test system: CAKI-1 renal
CCRF-CEM leukemia = test system: CCRF-CEM leukemia
COLO 205 colon = test system: COLO 205 colon
DU-145 prostate = test system: DU-145 prostate
EKVX NSCLC = test system: EKVX NSCLC
HCC-2998 colon = test system: HCC-2998 colon
HCT-116 colon = test system: HCT-116 colon
HCT-15 colon = test system: HCT-15 colon
HL-60(TB) leukemia = test system: HL-60(TB) leukemia
HOP-62 NSCLC = test system: HOP-62 NSCLC
HOP-92 NSCLC = test system: HOP-92 NSCLC
HS 578T breast = test system: HS 578T breast
HT29 colon = test system: HT29 colon
IGROV1 ovarian = test system: IGROV1 ovarian
K-562 leukemia = test system: K-562 leukemia
KM12 colon = test system: KM12 colon
LOX IMVI melanoma = test system: LOX IMVI melanoma
M14 melanoma = test system: M14 melanoma
MALME-3M melanoma = test system: MALME-3M melanoma
MCF7 breast = test system: MCF7 breast
MDA-MB-231 breast = test system: MDA-MB-231 breast
MDA-MB-435 = test system: MDA-MB-435
MOLT-4 leukemia = test system: MOLT-4 leukemia
NCI-H226 lung = test system: NCI-H226 lung
NCI-H23 lung = test system: NCI-H23 lung
NCI-H460 lung = test system: NCI-H460 lung
NCI-H522 lung = test system: NCI-H522 lung
NCI/ADR-RES ovarian = test system: NCI/ADR-RES ovarian
OVCAR-3 ovarian = test system: OVCAR-3 ovarian
OVCAR-4 ovarian = test system: OVCAR-4 ovarian
OVCAR-5 ovarian = test system: OVCAR-5 ovarian
OVCAR-8 ovarian = test system: OVCAR-8 ovarian
PC-3 prostate = test system: PC-3 prostate
RPMI-8226 leukemia = test system: RPMI-8226 leukemia
RXF 393 renal = test system: RXF 393 renal
SF-268 CNS = test system: SF-268 CNS
SF-295 CNS = test system: SF-295 CNS
SF-539 CNS = test system: SF-539 CNS
SK-MEL-2 melanoma = test system: SK-MEL-2 melanoma
SK-MEL-28 melanoma = test system: SK-MEL-28 melanoma
SK-MEL-5 melanoma = test system: SK-MEL-5 melanoma
SK-OV-3 ovarian = test system: SK-OV-3 ovarian
SN12C renal = test system: SN12C renal
SNB-19 CNS = test system: SNB-19 CNS
SNB-75 CNS = test system: SNB-75 CNS
SR leukemia = test system: SR leukemia
SW-620 colon = test system: SW-620 colon
T-47D breast = test system: T-47D breast
TK-10 renal = test system: TK-10 renal
U251 CNS = test system: U251 CNS
UACC-62 melanoma = test system: UACC-62 melanoma
UO-31 renal = test system: UO-31 renal

COC(=O)COc1ccccc1/C=C1\N=C(c2ccccc2)N(c2cc(C(F)(F)F)ccc2Cl)C1=O
GI50 (786-0 renal): 91.2 µM | TGI (786-0 renal): > 100 µM | GI50 (A498 renal): > 100 µM | TGI (A498 renal): > 100 µM | GI50 (A549 NSCLC): 97.4 µM | TGI (A549 NSCLC): > 100 µM | GI50 (ACHN renal): 57 µM | TGI (ACHN renal): > 100 µM | GI50 (BT-549 breast): 28.4 µM | TGI (BT-549 breast): 86.2 µM | GI50 (CAKI-1 renal): 79 µM | TGI (CAKI-1 renal): > 100 µM | GI50 (CCRF-CEM leukemia): 27.6 µM | TGI (CCRF-CEM leukemia): 74.4 µM | GI50 (COLO 205 colon): 31.7 µM | TGI (COLO 205 colon): > 100 µM | GI50 (DU-145 prostate): 22.1 µM | TGI (DU-145 prostate): 47.1 µM | GI50 (EKVX NSCLC): > 100 µM | TGI (EKVX NSCLC): > 100 µM | GI50 (HCC-2998 colon): 36.3 µM | TGI (HCC-2998 colon): > 100 µM | GI50 (HCT-116 colon): 38.2 µM | TGI (HCT-116 colon): > 100 µM | GI50 (HCT-15 colon): > 100 µM | TGI (HCT-15 colon): > 100 µM | GI50 (HL-60(TB) leukemia): 31.1 µM | TGI (HL-60(TB) leukemia): > 100 µM | GI50 (HOP-62 NSCLC): 45 µM | TGI (HOP-62 NSCLC): > 100 µM | GI50 (HOP-92 NSCLC): 33.2 µM | TGI (HOP-92 NSCLC): > 100 µM | GI50 (HS 578T breast): 35.6 µM | TGI (HS 578T breast): > 100 µM | GI50 (HT29 colon): 73.2 µM | TGI (HT29 colon): > 100 µM | GI50 (IGROV1 ovarian): 57 µM | TGI (IGROV1 ovarian): > 100 µM | GI50 (K-562 leukemia): 33.8 µM | TGI (K-562 leukemia): > 100 µM | GI50 (KM12 colon): 41.7 µM | TGI (KM12 colon): > 100 µM | GI50 (LOX IMVI melanoma): 24.9 µM | TGI (LOX IMVI melanoma): 73.6 µM | GI50 (M14 melanoma): 37.9 µM | TGI (M14 melanoma): > 100 µM | GI50 (MALME-3M melanoma): 27.5 µM | TGI (MALME-3M melanoma): 92.5 µM | GI50 (MCF7 breast): 39.1 µM | TGI (MCF7 breast): > 100 µM | GI50 (MDA-MB-231 breast): > 100 µM | TGI (MDA-MB-231 breast): > 100 µM | GI50 (MDA-MB-435): 33.1 µM | TGI (MDA-MB-435): > 100 µM | GI50 (MOLT-4 leukemia): 23 µM | TGI (MOLT-4 leukemia): 62.3 µM | GI50 (NCI-H226 lung): 66.6 µM | TGI (NCI-H226 lung): > 100 µM | GI50 (NCI-H23 lung): > 100 µM | TGI (NCI-H23 lung): > 100 µM | GI50 (NCI-H460 lung): 59.6 µM | TGI (NCI-H460 lung): > 100 µM | GI50 (NCI-H522 lung): 38.2 µM | TGI (NCI-H522 lung): > 100 µM | GI50 (NCI/ADR-RES ovarian): 45.8 µM | TGI (NCI/ADR-RES ovarian): > 100 µM | GI50 (OVCAR-3 ovarian): 34 µM | TGI (OVCAR-3 ovarian): 98.6 µM | GI50 (OVCAR-4 ovarian): 39.5 µM | TGI (OVCAR-4 ovarian): > 100 µM | GI50 (OVCAR-5 ovarian): > 100 µM | TGI (OVCAR-5 ovarian): > 100 µM | GI50 (OVCAR-8 ovarian): 37.3 µM | TGI (OVCAR-8 ovarian): > 100 µM | GI50 (PC-3 prostate): 32.5 µM | TGI (PC-3 prostate): > 100 µM | GI50 (RPMI-8226 leukemia): 24.9 µM | TGI (RPMI-8226 leukemia): 72.7 µM | GI50 (RXF 393 renal): 71.6 µM | TGI (RXF 393 renal): > 100 µM | GI50 (SF-268 CNS): 29.8 µM | TGI (SF-268 CNS): > 100 µM | GI50 (SF-295 CNS): > 100 µM | TGI (SF-295 CNS): > 100 µM | GI50 (SF-539 CNS): 42.7 µM | TGI (SF-539 CNS): > 100 µM | GI50 (SK-MEL-2 melanoma): 28.5 µM | TGI (SK-MEL-2 melanoma): > 100 µM | GI50 (SK-MEL-28 melanoma): 47.6 µM | TGI (SK-MEL-28 melanoma): > 100 µM | GI50 (SK-MEL-5 melanoma): 42.9 µM | TGI (SK-MEL-5 melanoma): > 100 µM | GI50 (SK-OV-3 ovarian): 57.7 µM | TGI (SK-OV-3 ovarian): > 100 µM | GI50 (SN12C renal): 60.5 µM | TGI (SN12C renal): > 100 µM | GI50 (SNB-19 CNS): 43.5 µM | TGI (SNB-19 CNS): > 100 µM | GI50 (SNB-75 CNS): 34.4 µM | TGI (SNB-75 CNS): > 100 µM | GI50 (SR leukemia): 24 µM | TGI (SR leukemia): 70.5 µM | GI50 (SW-620 colon): 38.8 µM | TGI (SW-620 colon): > 100 µM | GI50 (T-47D breast): 29.1 µM | TGI (T-47D breast): > 100 µM | GI50 (TK-10 renal): 56.3 µM | TGI (TK-10 renal): > 100 µM | GI50 (U251 CNS): 55.9 µM | TGI (U251 CNS): > 100 µM | GI50 (UACC-62 melanoma): > 100 µM | TGI (UACC-62 melanoma): > 100 µM | GI50 (UO-31 renal): 22.3 µM | TGI (UO-31 renal): 52.8 µM
